Assay results from paper PMC8287944, “5-Fluorouracil blocks quorum-sensing of biofilm-embedded methicillin-resistant Staphylococcus aureus in mice” (Nucleic Acids Research, 2021).
Read-outs that look alike come from different tables or passages of the source. Bridge positions count the residues as written; N and C are the ends. Square brackets hold non-standard residues; d marks the D form. Peptide text beside a SMILES is read from it. I, II: the chains in the order shown. * marks the point of attachment. Quinoxaline2carbonyl = O=C(c1cnc2ccccc2n1)*; NMeV = CN[CH](C(=O)O)C(C)C; NMeC = CN[CH](CS)C(=O)O

What was measured:
[1] = tested on: AI-2 production by HEK-293AI2 cells expressing MTAN and LuxS; assay: HEK-293AI2 / V. harveyi (MM32) AI-2 detection platform (AI-2 production by engineered human cells); format: cell-based, human cells; MTAN and LuxS derived from E. coli; settings: for IC50: HEK-293AI2 cells exposed 24 h, AI-2 in supernatant read by V. harveyi MM32 bioluminescence
Experimental: LuxS (MF688636) and MTAN (MF688635) transgenes derived from E. coli were codon-optimized for stable expression in mammalian cells. For the generation of double stable HEK-293-derived cell line HEK-293AI2 transgenic for simultaneous constitutive PhEFIα-driven MTAN and PhCMV-driven LuxS-eYFP expression, 250,000 cells were first transfected with 2000 ng of pFS168 (PhEFIα-MTAN-pA) and selected in culture medium containing 20 μg/ml blasticidin (cat. no. ant-bl-1; InvivoGen, San Diego, CA, USA) for two weeks. […] After 17 days of selection in medium containing 200 μg/ml (w/v) zeocin (cat. no. ant-zn-1; Invivogen, San Diego, CA, USA) and 20 μg/ml blasticidin, resistant monoclonal cells (HEK-293sFS26cx) were obtained by limiting dilution cloning and screened for AI-2 activity in their supernatants. […] The cell line was regularly tested for the absence of mycoplasma.
20 μl of HEK-293AI2 cells (10^4 cells per well) were resuspended in 20 μl Dulbecco's modified Eagle's medium (DMEM; Thermo Fisher, Basel, Switzerland, low glucose, without phenol red, cat. no. 11880–028) supplemented with 4 mM L-glutamine (Thermo Fisher, Basel, Switzerland, cat. no. 25030-024), 30 μg/ml kanamycin and 1% FCS and seeded into a poly-L-lysine-coated Black Greiner clear-bottom 384-well plate (cat. no. 3845; Corning, New York, USA) using a Multidrop Combi Reagent Dispenser (cat. no. 5840300; Thermo Fisher, Basel, Switzerland). Cells were incubated for 20 h and then 20 nL of individual compounds (stock solution in 5 mM in DMSO) or controls (stock solutions of novobiocin, 10 mM in DMSO; staurosporin, 20 mM in DMSO) were transferred with Echo 550 liquid handler (Labcyte, San Jose, CA, USA) into the plate.
Compound-treated cells were cultivated for 24 hours and the cell culture supernatants (10 μl) were transferred to dry black polystyrene 384-well plates (Corning, New York, USA, cat. no. 3571). The AI-2 activity was quantified by adding 40 μl per 384-well of V. harveyi MM32 AI-2 reporter strain, diluted 1:500 in AB-Medium from a stationary overnight culture grown in Luria Marine (LM)-medium containing 20 g of NaCl, 10 g of Bacto Tryptone (Difco Laboratories), and 5 g of yeast extract (BBL) ([25]). Plates were sealed with BREATHseal™ (cat. no. 7.676 050; Greiner Bio-One, Frickenhausen, Germany) and incubated for 4 h at 30°C and 200 rpm on a Multitron Pro shaker (Infors, Bottmingen, Switzerland). Bioluminescence was measured on an Envision 2104 Multilabel plate reader (Perkin Elmer, Waltham, USA) with 1 s integration time. […] The initial hit inclusion criteria were a toxicity score of less than 50% and an AI-2 activity reduction below the average of all compound activity three times the standard deviation (-49.39% of activity).
(§1) Figure 2. Cell-based primary screen for AI-2 biosynthesis inhibitors. (A) Detailed assay protocol of the primary screen using engineered mammalian cells to identify inhibitors of quorum sensing. […] Aliquots of 10 μl of culture supernatants were transferred to black-bottomed assay plates and mixed with 40 μl of V. harveyi MM32 (AI-2 biosensor). AI-2-induced bioluminescence was measured 4 h later and normalized against the controls. In a secondary screen, the dose-response relationships of hit compounds are analyzed. To simultaneously assess effects on cell viability, compound-treated cells were supplemented with PrestoBlue and incubated for 1 h prior to resorufin fluorescence quantification. (B) Z’-evaluation of the AI-2 inhibitor assay.

HEK-293AI2 cells = format: cell-based, human
Experimental: To monitor viable cells with active metabolism, we employed a fast resazurin assay. […] To calculate the relative cell viability, the fluorescence of DMSO-treated cells was set to 100%.
as §1, with “assay. […] Bioactivity and viability are calculated as percentages, based on the positive control value (taken as 100%) and negative control value (taken as 0%). […] Data points in (C) represent means of biological duplicates.” for “assay.”

V. harveyi (BB170) = assay: V. harveyi BB170 growth (OD600 after 24 h); format: cell-based, Vibrio harveyi; parameters: TC50 (decrease of V. harveyi growth): unit not given beside the values; settings: V. harveyi BB170, OD600 after 24 h
Experimental: The test strain V. harveyi BB170 was grown overnight in Luria Marine (LM)-medium ([25]). The culture was 1:500 diluted in AB-medium (0.3 M NaCl, 10 mM potassium phosphate, 1 mM L-arginine, […], 1% glycerol) the next day, and then challenged with various chemical compounds. After 5 h of shaking at 200 rpm at 30°C, the bioluminescence of BB170 was quantified on a GENios Pro plate reader (Tecan, Männedorf, Switzerland).
Figure 3. Bioactivity of hit candidates against Vibrio harveyi. Effect on bacterial growth. V. harveyi (BB170) was grown in the presence of individual compounds (A–H) for 5 h and the bioluminescence (green circles) was quantified. After a total of 24 h, bacterial growth (+) was evaluated by measuring the optical density (OD600). The gray translucent background in (C) represents the narrow range within which the compound reduces bioluminescence without affecting growth.

MTAN = settings: cited from earlier work; for Ki: read-out: Ki (reported, in vitro)

CCCCC[C@H](CC(=O)NO)C(=O)N[C@H](C(=O)N1CCC[C@H]1CO)C(C)C [Actinonin]
IC50 ([1]; Homo sapiens, 24 h): 1000 nM | Viability of Ctrl (%) (HEK-293AI2 cells; human, 5 µM): –11.93%

CNC1=NC(=O)[C@H]([C@@H](C)c2c[nH]c3ccccc23)O1 [CHEMBL283366]
IC50 [1]: 180 nM

CO/N=C(\C(=O)N[C@@H]1C(=O)N2C(C(=O)O)=C(CSc3nc(=O)c(=O)[nH]n3C)CS[C@H]12)c1csc(N)n1 [Ceftriaxone]
IC50 ([1]; Homo sapiens, 24 h): 3490 nM | Viability of Ctrl (%) (HEK-293AI2 cells; human, 5 µM): –4.78%

Nc1nc(Cl)nc2c1ncn2[C@@H]1O[C@H](CO)[C@@H](O)[C@@H]1F [Clofarabine]
TC50 (decrease of V. harveyi growth) (V. harveyi (BB170)): 4.4 × 10^−7 | IC50 ([1]; Homo sapiens, 24 h): 160 nM | Viability of Ctrl (%) (HEK-293AI2 cells; human, 5 µM): 15.42%

C[C@H]1O[C@@H](n2cc(F)c(=O)[nH]c2=O)[C@H](O)[C@@H]1O [Doxifluridine]
IC50 ([1]; Homo sapiens, 24 h): 240 nM | Viability of Ctrl (%) (HEK-293AI2 cells; human, 5 µM): –0.0725%

CC[C@H]1OC(=O)[C@H](C)[C@@H](O[C@H]2C[C@@](C)(OC)[C@@H](O)[C@H](C)O2)[C@H](C)[C@@H](O[C@@H]2O[C@H](C)C[C@H](N(C)C)[C@H]2O)[C@](C)(O)C[C@@H](C)C(=O)[C@H](C)[C@@H](O)[C@]1(C)O.O=C(O)[C@H](O)[C@H](O)[C@@H](O)[C@H](O)[C@H](O)CO [Erythrohycin Gluceptate]
IC50 [1]: 1310 nM

CC[C@H]1OC(=O)[C@H](C)[C@@H](O[C@H]2C[C@@](C)(OC)[C@@H](O)[C@H](C)O2)[C@H](C)[C@@H](O[C@@H]2O[C@H](C)C[C@H](N(C)C)[C@H]2O)[C@](C)(O)C[C@@H](C)C(=O)[C@H](C)[C@@H](O)[C@H]1C [Erythromycin B]
IC50 [1]: 1420 nM | Viability of Ctrl (%) (HEK-293AI2 cells): 4.99%

O=c1[nH]c(=O)n([C@H]2C[C@H](O)[C@@H](CO)O2)cc1F [Floxuridine]
IC50 ([1]; Homo sapiens, 24 h): 770 nM | Viability of Ctrl (%) (HEK-293AI2 cells; human, 5 µM): –22.28%

Nc1ncnc2c([C@@H]3O[C@H](CO)[C@@H](O)[C@H]3O)[nH]nc12 [Formycin]
Ki (MTAN; competitive MTAN inhibition): 10000 nM | IC50 (MTAN; competitive MTAN inhibition, read-out: Reported IC50 (in vitro)): 57000 nM | IC50 ([1]; Homo sapiens, 24 h): 2110 nM

C[C@@H]1C/C=C2\SC[C@@H](NC(=O)c3coc(n3)C[C@H](O)C[C@H](O)/C=C/C=C/CNC2=O)C(=O)O1 [Griseoviridin]
IC50 [1]: 4550 nM

CC(=O)NC[C@H]1CN(c2ccc(N3CCOCC3)c(F)c2)C(=O)O1 [Linezolid]
IC50 ([1]; Homo sapiens, 24 h): 4160 nM | Viability of Ctrl (%) (HEK-293AI2 cells; human, 5 µM): 0.38%

CSC[C@H]1CN(Cc2c[nH]c3c(N)ncnc23)C[C@@H]1O [MT-DADMe-ImmA]
Ki (MTAN; MTAN inhibition): 0.002 nM | IC50 [1]: 170 nM

C/C=C\C=C\[C@@H]1O[C@](O)([C@H](CC)C(=O)NC/C=C/C=C(\C)[C@@H](OC)[C@H](C)[C@@H]2O[C@H](/C=C/C=C/C=C(\C)C(=O)c3c(O)cc[nH]c3=O)[C@H](O)[C@@H]2O)[C@H](O)[C@H](O)C1(C)C [Mocimycin]
IC50 [1]: 1370 nM

COc1cc(C)c(Cc2cnc(N)nc2N)cc1OC [Ormetoprim]
IC50 ([1]; Homo sapiens, 24 h): 3660 nM

NC(=O)c1ncn([C@@H]2O[C@H](CO)[C@@H](O)[C@H]2O)n1 [Ribavirin]
IC50 ([1]; Homo sapiens, 24 h): 190 nM

CO[C@H]1/C=C/O[C@@]2(C)Oc3c(C)c(O)c4c(c3C2=O)C2=NC3(CCN(CC(C)C)CC3)NC2=C(NC(=O)/C(C)=C\C=C\[C@H](C)[C@H](O)[C@@H](C)[C@@H](O)[C@@H](C)[C@H](OC(C)=O)[C@@H]1C)C4=O [Rifabutin]
IC50 ([1]; Homo sapiens, 24 h): 2190 nM | Viability of Ctrl (%) (HEK-293AI2 cells; human, 5 µM): –5.07%

CO[C@H]1/C=C/O[C@@]2(C)Oc3c(C)c(O)c4c(O)c(c(/C=N/N5CCN(C6CCCC6)CC5)c(O)c4c3C2=O)NC(=O)/C(C)=C\C=C\[C@H](C)[C@H](O)[C@@H](C)[C@@H](O)[C@@H](C)[C@H](OC(C)=O)[C@@H]1C [Rifapentine]
IC50 ([1]; Homo sapiens, 24 h): 2530 nM | Viability of Ctrl (%) (HEK-293AI2 cells; human, 5 µM): –0.98%

O=CN(O)C[C@@H](CC1CCCC1)C(=O)N1C[C@H](F)C[C@H]1C(=O)Nc1cnccn1 [SCHEMBL12230405]
IC50 [1]: 150 nM

O=CN(O)C[C@@H](CC1CCC1)C(=O)N1C[C@H](F)C[C@H]1C(=O)Nc1cccnn1 [SCHEMBL12230407]
IC50 [1]: 630 nM

O=CN(O)C[C@@H](CC1CCCC1)C(=O)N1C[C@H](F)C[C@H]1C(=O)Nc1cccnn1 [SCHEMBL12230409]
IC50 [1]: 640 nM

CCCC[C@H](CN(O)C=O)C(=O)N1CCC[C@H]1C(=O)Nc1cc(CC)ccn1 [SCHEMBL14510040]
IC50 [1]: 1090 nM

CC1NC(=O)C(NC(=O)c2cnc3ccccc3n2)COC(=O)C(C(C)C)N(C)C(=O)C2CSSCC(C(=O)N(C)C(C(C)C)C(=O)OCC(NC(=O)c3cnc4ccccc4n3)C(=O)NC(C)C(=O)N2C)N(C)C1=O (centres unmarked) [Triostin A] (I: Quinoxaline2carbonyl-SA[NMeC][NMeV] / II: Quinoxaline2carbonyl-SA[NMeC][NMeV]; ester I:1-II:C, I:C-II:1; disulfide I:3-II:3; configuration not given here)
IC50 [1]: 2140 nM

CO[C@@H]1[C@@H](OC(N)=O)[C@@H](O)[C@H](Oc2ccc3c(O)c(NC(=O)c4ccc(O)c(CC=C(C)C)c4)c(=O)oc3c2C)OC1(C)C [novobiocin]
Bioluminescence of V. harveyi (MM32) ([1]; assay validation, active control novobiocin 10 μM): completely shut down the bioluminescence

Erythromycin
IC50 [1]: 1930 nM

Levomycin
IC50 [1]: 370 nM
